Results published in ChEMBL document CHEMBL1938259, “Novel substituted pyrimidines as HCV replication (replicase) inhibitors” (Bioorg Med Chem Lett, 2012).

Tests used:
Rattus norvegicus = assay: AUC (0 to 24 hrs) in rat at 10 mg/kg, po and 2 mg/kg, iv; type: ADME, organism-based, Plasma; conditions: in vivo
Canis familiaris = assay: AUC (0 to 24 hrs) in dog at 2 mg/kg, po; type: ADME, organism-based, Canis lupus familiaris, Plasma; design: time < 24 hr, dose 2 mg/kg, route oral; conditions: in vivo

SMILES | AUC (Rattus norvegicus) | AUC (Canis familiaris)
Nc1nc(Cl)c(C#Cc2nccs2)c(N[C@@H]2C[C@H](CO)[C@@H](O)[C@H]2O)n1 | 600 nM·h | –
Nc1nc(Cl)c(C#Cc2ccsc2)c(N[C@@H]2C[C@H](CO)[C@@H](O)[C@H]2O)n1 | 1600 nM·h | 2200 nM·h
